Results taken from patent US8501787B2, “Compounds for the inhibition of angiogenesis and use thereof” (Shire Orphan Therapies GmbH, priority 2004, dated 2013).
Like-named read-outs stand apart in the source and are kept apart here.

Assays:
[1] = target: T1, integrin alphaIIbbeta3 (Homo sapiens, UniProt P05106+P08514); test: AlphaIIbbeta3-Fibrinogen binding assay (competitive ELISA); details: inhibition of integrin binding to fibrinogen; read-out: IC50 alphabIIbbeta3 in nM
T1 construct: purchased Kordia (Kordia Life Science, Leiden, Netherlands)
Procedure: (§1) The optimal concentrations of integrin and ligand were selected from ELISA binding studies with variable concentrations of both to obtain optimal signal noise ratio for further studies. IC50 studies were performed with fixed concentration of ligand and integrin and a serial dilution of inhibitor. The plates were measured with SpectraMax Plus reader (Molecular Devices). The resulting inhibition curves were analyzed using SoftMaxPro 4.0 software, the turning point describes the IC50 value.
(§2) Fibronectin and Vitronectin were purchased from Sigma, fibrinogen from Calbiochem. (EMD Biosciences, Darmstadt, Germany) The integrin alpha5beta1 extracellular domain Fc-fusion was expressed and purified as described in (Coe, 2001, JBC, 276, 35854). Integrins alphavbeta3 and alphavbeta5 were purchased from Chemicon (Chemicon Europe, Germany) and alphaIIbbeta3 form Kordia (Kordia Life Science, Leiden, Netherlands)
(§3) Fibrinogen was diluted with coating buffer (15 mM Na2CO3, 35 mM NaHCO3, pH9.6) and coated with 100 μL/well to Nunc-Immuno maxisorp plates over night at 4° C. After discarding the coating solution plates were washed 3 times with buffer 1 (25 mM Tris, pH7.6, 150 mM NaCl, 1 mM MnCl2, 1 mg/mL BSA) and blocked with 100 μL blocking buffer (3% BSA in PBS 0.1% Tween20) for 1 hour at room temperature. […] The developed colour was measured at 450 nm and analyzed as described above.

[2] = target: T2, integrin alpha5beta1 (Homo sapiens, UniProt P05556+P08648); test: Alpha5beta1-Fibronectin binding assay (competitive ELISA)
T2 construct: The integrin alpha5beta1 extracellular domain Fc-fusion was expressed and purified; made in house
Procedure: as §1, §2
Fibronectin was diluted with coating buffer (15 mM Na2CO3, 35 mM NaHCO3, pH9.6) and coated with 100 μL/well to Nunc-Immuno maxisorp plates (Nalge Nunc Europe Ltd) over night at 4° C. After discarding the coating solution plates were washed 3 times with buffer 1 ([…], pH7.6, 150 mM NaCl, 1 mM […], 1 mg/mL BSA) and blocked with 100 μL blocking buffer (3% BSA in PBS 0.1% Tween20) for 1 hour at room temperature. After washing the blocked plates (3 times) with buffer 1, integrin (50 μL) and either inhibitor (serial dilution in buffer 1) or buffer 1 (50 μL) were added to the wells and incubated for one hour at RT. Plates were then washed (3 times) with buffer 1 and incubated with 100 μL of anti-human-Fc-HRP antibody conjugate (Sigma-Aldrich, Taufkirchen, Germany) in buffer 1 for 1 hour at RT. After additional washing steps (3 times) with buffer 1 50 μL of HRP substrate solution TMB (Seramun, Germany) were added to the wells. Colour development was stopped after 3-5 minutes with 50 μL 1M H2SO4. The developed colour was measured at 450 nm and analyzed as described above.

[3] = test system: retinal angiogenesis; test: Physiological retinal angiogenesis at newborn rats; type: in vivo, Sprague Dawley rats; details: intravitreal injection at P1 and P3, evaluated at P6, compared to vehicle treated and non-treated eye
Description: Rats are born with a completely avascular retina with physiological retinal vascular development occurring in a centripetal manner within the first two weeks of life. At postnatal day P6 approximately 65% is physiologically vascularized, with vascularization being complete by P10-14.
Sprague Dawley rats were used according to protocols which are in conformity with the Association for Research in Vision and Ophthalmology's statements on the Use of Animals in Ophthalmic Research.
Rat pups were taken from within 24 h of birth and injected intravitreally at P1 with 3 μL of selected compound solved in saline. The same injection was repeated at P3. Controls include vehicle injected, as well as uninjected eyes. The animals were sacrificed by decapitation at P6. Upon sacrifice the eyes were enucleated and fixed in 10% buffered formalin phosphate (Fisher Scientific) for 30 minutes at RT. The retinas were dissected and post-fixed in methanol for 10 minutes at −20° C. The retinas were washed with 1% Triton X-100 in PBS and incubated overnight with a 1/100 solution of TRITC conjugated lectin griffonia simplicifolia (Sigma-Aldrich) in 1% Triton X-100 in PBS. […] The percentage of total vascularized area was calculated as a percent of the vascularized area over the total surface area (Adobe-Photoshop).

[4] = target: T3, integrin alphavbeta3 (Homo sapiens, UniProt P05106+P06756); test: Vitronectin binding assay, alphavbeta3 (competitive ELISA); details: inhibition of integrin binding to vitronectin
T3 construct: purchased Chemicon (Chemicon Europe, Germany)
Procedure: as §1, §2
as §3, with “Vitronectin” for “Fibrinogen”

[5] = target: T4, integrin alphavbeta5 (Homo sapiens, UniProt P06756+P18084); test: Vitronectin binding assay, alphavbeta5 (competitive ELISA); details: inhibition of integrin binding to vitronectin
T4 construct: purchased Chemicon (Chemicon Europe, Germany)
Procedure: as §1, §2
Vitronectin was diluted with coating buffer (15 mM Na2CO3, 35 mM NaHCO3, pH9.6) and coated with 50 μL/well to Nunc-Immuno maxisorp plates over night at 4° C. […]
Plates were then washed (3 times) with buffer 2 and incubated with 50 μL of anti-alphavbeta5 antibody (Chemicon) in buffer 2 for 1 hour at RT. […] The developed colour was measured at 450 nm and analyzed as described above.

[6] = test system: K562 erythroleukemia cells; test: Cell adhesion assay with K562 on fibronectin; type: cell-based; details: at 0.5 μM; OD 570
Procedure: K562 erythroleukemia cells were obtained from the German Collection of Microorganisms and Cell Cultures GmbH (DMSZ, Braunschweig, Germany). Cells were cultured in RPMI medium containing 10% fetal calf serum, 2 mM glutamine and 100 U/mL penicillin-streptomycin (all from Biochrom AG, Germany).
The cell adhesion assays were performed in 96-well Nunc-Immuno maxisorp plates. The wells were coated for 1 h at 37° C. with 100 μL aliquots of fibronectin (10 μg/mL in phosphate-buffered-saline, 120-kDa fragment, Chemicon Europe, Germany), then blocked with 10 mg/mL heat denatured BSA in phosphate buffer for 30 min.
K562 cells were resuspended to 4×10^6 cells/mL in […], 25 mM Hepes, 2 mM EDTA, pH 7.4, and incubated for 30 min at 37° C. As a next step the cells were washed two times with the same buffer. 100 μL cell aliquots were then added to 100 μL aliquots of the same buffer with in addition 4 mM MgCl2, […] and different concentrations of compounds. These samples were preincubated for 30 min at 37° C. After that 100 μL aliquots were transferred to the microtiter wells and the cells were allowed to adhere to the substrate for 30 min at 37° C. in a humidified atmosphere of 5% CO2. […]
The absorbance of each well at 570 nm was then measured using the SpectraMax Plus reader. […]

[7] = inhibition of integrin binding to fibronectin, read-out: IC50 alpha5beta1 in nM
[8] = method of section 1.1, read-out: Group (binding activities to integrin alpha5beta1)

IC50 [1] [nM] | IC50 [2, 7] [nM] | IC50 [2, 8] [nM] | IC50 [4] [nM] | IC50 [5] [nM] | Compound | retinal angiogenesis (vessel area, % of total retinal area) [3] | inhibition of K562 cell adhesion to fibronectin [6]
9000 | 3.7 | < 10 | 11.6 | 230 | Cc1cc(C)c(S(=O)(=O)N[C@@H](CNC(=O)CO[C@@H]2C[C@@H](CNc3ccccn3)N(C(=O)OCc3ccccc3)C2)C(=O)O)c(C)c1 [Compound 5, 12S,14R,30S-4-{[2-Carboxy-2-(2,4,6-trimethyl-benzenesulfonylamino)-ethylcarbamoyl]-methoxy}-2-(pyridin-2-ylaminomethyl)-pyrrolidine-1-carboxylic acid benzyl ester] | significantly reduced | –
> 50000 | 2.4 | < 10 | ~30000 | > 50000 | Cc1cc(C)c(C(=O)N[C@@H](CNC(=O)CO[C@@H]2C[C@@H](CNc3ccccn3)N(C(=O)OCc3ccccc3)C2)C(=O)O)c(C)c1 [Compound 71, 4-{[2-Carboxy-2-(2,4,6-trimethyl-benzoylamino)-ethylcarbamoyl]-methoxy}-2-(pyridin-2-ylaminomethyl)-pyrrolidine-1-carboxylic acid benzyl ester] | – | significantly active in inhibiting cell adhesion
